# pIC50: −log10 of the molar value.
# Columns and labels:
# [1] = Preliminary metabolic stability in HLM; type: in vitro ADME, human; conditions: with and without cofactor, 37°C, 0-40 minutes, MMF at 750 μmol/L
# [2] = system: moderate‐to‐severe psoriasis; conditions: phase III trial (BRIDGE); both P < .001; cited from earlier work
# P‐gp [3] = target: T1, P‐gp (Homo sapiens, UniProt P08183); test: P-gp inhibition, [3H]digoxin efflux in MDCKII-MDR1 and MDCKII-WT cells; conditions: for % Control relative to 0 mmol/L MMF: MDCKII cells, [^3H]digoxin net efflux ratio
# T1 sequence (P08183 whole entry): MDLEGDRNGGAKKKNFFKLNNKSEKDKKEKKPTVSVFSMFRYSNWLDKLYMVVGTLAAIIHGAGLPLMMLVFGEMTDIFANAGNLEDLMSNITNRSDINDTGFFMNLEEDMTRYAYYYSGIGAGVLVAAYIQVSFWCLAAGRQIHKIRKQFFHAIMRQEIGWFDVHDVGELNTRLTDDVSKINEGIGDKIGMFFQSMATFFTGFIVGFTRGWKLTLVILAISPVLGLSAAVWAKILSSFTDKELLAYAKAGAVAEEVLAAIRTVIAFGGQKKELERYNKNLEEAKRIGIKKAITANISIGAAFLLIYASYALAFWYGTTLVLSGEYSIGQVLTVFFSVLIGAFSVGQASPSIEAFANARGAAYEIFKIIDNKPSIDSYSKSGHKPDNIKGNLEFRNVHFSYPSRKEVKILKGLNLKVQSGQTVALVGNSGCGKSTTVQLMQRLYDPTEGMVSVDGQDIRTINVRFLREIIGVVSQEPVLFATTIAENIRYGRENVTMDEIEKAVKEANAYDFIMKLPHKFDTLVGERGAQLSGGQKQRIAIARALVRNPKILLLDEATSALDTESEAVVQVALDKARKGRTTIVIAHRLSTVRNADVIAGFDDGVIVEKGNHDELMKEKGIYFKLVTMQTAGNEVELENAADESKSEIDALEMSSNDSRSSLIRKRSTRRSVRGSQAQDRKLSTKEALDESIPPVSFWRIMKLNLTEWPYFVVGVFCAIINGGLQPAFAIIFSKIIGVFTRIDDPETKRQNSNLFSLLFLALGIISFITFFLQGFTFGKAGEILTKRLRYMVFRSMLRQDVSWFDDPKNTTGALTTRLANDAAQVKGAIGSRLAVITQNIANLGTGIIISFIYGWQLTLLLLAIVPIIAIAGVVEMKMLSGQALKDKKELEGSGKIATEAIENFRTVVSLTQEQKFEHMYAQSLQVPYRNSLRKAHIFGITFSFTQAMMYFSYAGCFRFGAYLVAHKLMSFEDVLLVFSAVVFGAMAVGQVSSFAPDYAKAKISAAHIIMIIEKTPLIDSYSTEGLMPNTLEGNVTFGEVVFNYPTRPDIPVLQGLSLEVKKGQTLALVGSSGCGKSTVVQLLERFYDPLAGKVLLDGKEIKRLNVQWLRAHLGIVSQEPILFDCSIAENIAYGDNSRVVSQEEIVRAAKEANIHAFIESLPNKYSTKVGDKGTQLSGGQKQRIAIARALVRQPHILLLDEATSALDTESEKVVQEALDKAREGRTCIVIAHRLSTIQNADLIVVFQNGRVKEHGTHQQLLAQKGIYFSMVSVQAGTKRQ
# P‐gp [4] = target: T1, P‐gp; test: P-gp inhibition, [3H]digoxin efflux in Caco-2 cells; conditions: for % Control relative to 0 mmol/L MMF: Caco‐2 cells, [^3H]digoxin efflux ratio
# [5] = pH conditions and gut esterases; cited from earlier work
# CYP3A4/5 = CYP3A4/5 inhibition in human liver microsomes; type: biochemical; conditions: for IC50 at 10 min / inhibition at 10 min, 666 μmol/L: human, human liver microsomes; for inhibition at 10 min, 666 μmol/L: probe testosterone, Inhibition of formation of 6β‐hydroxytestosterone, Mean, testosterone
# P‐gp [6] = target: T1, P‐gp; test: P-gp substrate assessment in MDCKII-MDR1 and WT MDCKII cells; type: in vitro ADME; conditions: MMF; at 120 minutes; all concentrations investigated
# CYP2B6 mRNA = CYP2B6 mRNA induction in cultured human hepatocytes; type: cell-based
# [7] = read-out: maximum plasma concentration (Cmax) of MMF; for a 240 mg dose; clinically relevant; cited from earlier work
# CYP3A4 mRNA = CYP3A4 mRNA induction in cultured human hepatocytes; type: cell-based
# CYP1A2 = target: T2, CYP1A2 (Homo sapiens, UniProt P05177); test: CYP1A2 inhibition in human liver microsomes; type: biochemical
# T2 sequence (P05177 1-516): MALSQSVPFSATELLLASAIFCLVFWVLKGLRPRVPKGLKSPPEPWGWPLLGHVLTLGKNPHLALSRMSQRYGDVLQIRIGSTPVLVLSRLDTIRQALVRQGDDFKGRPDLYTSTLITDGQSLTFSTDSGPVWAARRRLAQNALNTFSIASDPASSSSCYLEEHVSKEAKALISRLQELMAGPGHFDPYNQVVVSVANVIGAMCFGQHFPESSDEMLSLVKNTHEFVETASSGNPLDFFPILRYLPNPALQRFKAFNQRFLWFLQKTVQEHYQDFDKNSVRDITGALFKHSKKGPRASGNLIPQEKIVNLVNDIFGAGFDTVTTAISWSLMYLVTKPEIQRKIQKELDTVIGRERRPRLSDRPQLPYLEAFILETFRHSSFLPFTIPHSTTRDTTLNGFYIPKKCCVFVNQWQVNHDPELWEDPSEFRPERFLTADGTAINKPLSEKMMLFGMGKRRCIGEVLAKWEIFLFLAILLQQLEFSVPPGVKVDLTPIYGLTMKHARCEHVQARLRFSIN
# CYP2D6 = CYP2D6 (Homo sapiens, UniProt P10635); test: CYP2D6 inhibition in human liver microsomes; type: biochemical
# Chain of CYP2D6 (P10635 whole entry): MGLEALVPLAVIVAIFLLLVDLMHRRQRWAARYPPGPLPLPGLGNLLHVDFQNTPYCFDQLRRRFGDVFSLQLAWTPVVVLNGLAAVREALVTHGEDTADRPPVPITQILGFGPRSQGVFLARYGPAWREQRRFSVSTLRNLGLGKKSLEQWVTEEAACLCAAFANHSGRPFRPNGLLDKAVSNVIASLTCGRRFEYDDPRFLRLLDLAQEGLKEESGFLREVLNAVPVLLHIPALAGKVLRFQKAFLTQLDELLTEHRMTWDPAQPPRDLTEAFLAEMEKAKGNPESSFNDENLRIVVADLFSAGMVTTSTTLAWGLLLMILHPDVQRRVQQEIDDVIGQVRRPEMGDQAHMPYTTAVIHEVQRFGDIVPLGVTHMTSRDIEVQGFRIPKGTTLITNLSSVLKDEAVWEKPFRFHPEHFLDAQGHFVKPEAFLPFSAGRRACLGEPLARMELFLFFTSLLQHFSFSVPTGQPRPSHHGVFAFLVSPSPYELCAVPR
# [8] = Permeability across Caco-2 cell monolayers; type: in vitro ADME; conditions: human, Caco-2, pH 7.4
# CYP2B6 = target: T3, CYP2B6 (Homo sapiens, UniProt P20813); test: CYP2B6 inhibition in human liver microsomes; type: biochemical
# T3 sequence (P20813 1-491): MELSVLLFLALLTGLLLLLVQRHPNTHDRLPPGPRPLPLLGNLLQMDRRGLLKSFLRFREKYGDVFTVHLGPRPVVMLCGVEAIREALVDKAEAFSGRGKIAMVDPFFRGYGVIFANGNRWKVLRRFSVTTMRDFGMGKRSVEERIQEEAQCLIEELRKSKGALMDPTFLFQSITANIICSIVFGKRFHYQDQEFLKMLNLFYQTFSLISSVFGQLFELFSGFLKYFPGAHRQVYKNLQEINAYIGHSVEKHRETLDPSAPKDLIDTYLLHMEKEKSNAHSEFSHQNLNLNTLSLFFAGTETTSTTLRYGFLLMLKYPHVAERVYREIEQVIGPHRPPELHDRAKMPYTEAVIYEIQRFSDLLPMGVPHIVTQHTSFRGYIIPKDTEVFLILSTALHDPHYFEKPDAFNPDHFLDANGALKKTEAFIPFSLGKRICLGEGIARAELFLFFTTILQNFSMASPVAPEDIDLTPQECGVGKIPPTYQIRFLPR
# CYP2C8 = target: T4, CYP2C8 (Homo sapiens, UniProt P10632); test: CYP2C8 inhibition in human liver microsomes; type: biochemical
# T4 sequence (P10632 1-490): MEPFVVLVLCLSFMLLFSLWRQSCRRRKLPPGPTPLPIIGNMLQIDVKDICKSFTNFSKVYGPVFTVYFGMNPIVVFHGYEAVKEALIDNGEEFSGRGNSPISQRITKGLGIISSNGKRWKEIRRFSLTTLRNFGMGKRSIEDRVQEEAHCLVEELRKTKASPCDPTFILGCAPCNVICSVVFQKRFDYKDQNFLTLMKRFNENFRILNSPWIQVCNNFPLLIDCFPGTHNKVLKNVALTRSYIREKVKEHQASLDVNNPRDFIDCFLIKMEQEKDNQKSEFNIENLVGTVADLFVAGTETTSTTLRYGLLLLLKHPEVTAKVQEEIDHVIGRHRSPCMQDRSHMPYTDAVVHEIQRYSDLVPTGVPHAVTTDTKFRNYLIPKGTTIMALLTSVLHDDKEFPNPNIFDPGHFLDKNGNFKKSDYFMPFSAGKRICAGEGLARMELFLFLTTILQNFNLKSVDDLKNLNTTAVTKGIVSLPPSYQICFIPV
# [9] = MMF solubility in supplemented Williams' Medium E; type: physicochemical; conditions: MMF up to 750 μmol/L
# [10] = MMF concentration in incubation medium; type: in vitro ADME; conditions: no‐cell control plate; after 24 hours’ incubation
# [11] = Preliminary solubility in potassium phosphate buffer with HLM; type: physicochemical; conditions: MMF in solutions of HLM at 0.025 and 0.3 mg/mL
# CYP2C19 = CYP2C19 (Homo sapiens, UniProt P33261); test: CYP2C19 inhibition in human liver microsomes; type: biochemical
# Chain of CYP2C19 (P33261 whole entry): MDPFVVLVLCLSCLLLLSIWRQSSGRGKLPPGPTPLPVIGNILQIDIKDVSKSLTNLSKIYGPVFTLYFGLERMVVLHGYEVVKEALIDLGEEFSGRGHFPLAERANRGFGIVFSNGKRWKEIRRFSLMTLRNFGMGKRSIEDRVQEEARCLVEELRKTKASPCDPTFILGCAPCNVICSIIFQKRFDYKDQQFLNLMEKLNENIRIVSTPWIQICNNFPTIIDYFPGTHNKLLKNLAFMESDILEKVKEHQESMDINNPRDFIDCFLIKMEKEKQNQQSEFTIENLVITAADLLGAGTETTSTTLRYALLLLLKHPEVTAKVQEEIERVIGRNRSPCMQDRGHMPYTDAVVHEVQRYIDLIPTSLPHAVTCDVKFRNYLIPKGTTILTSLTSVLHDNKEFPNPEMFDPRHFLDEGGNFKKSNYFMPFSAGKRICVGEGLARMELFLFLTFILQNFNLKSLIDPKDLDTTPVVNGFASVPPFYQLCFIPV
# CYP2C9 = CYP2C9 (Homo sapiens, UniProt P11712); test: CYP2C9 inhibition in human liver microsomes; type: biochemical
# Chain of CYP2C9 (P11712 whole entry): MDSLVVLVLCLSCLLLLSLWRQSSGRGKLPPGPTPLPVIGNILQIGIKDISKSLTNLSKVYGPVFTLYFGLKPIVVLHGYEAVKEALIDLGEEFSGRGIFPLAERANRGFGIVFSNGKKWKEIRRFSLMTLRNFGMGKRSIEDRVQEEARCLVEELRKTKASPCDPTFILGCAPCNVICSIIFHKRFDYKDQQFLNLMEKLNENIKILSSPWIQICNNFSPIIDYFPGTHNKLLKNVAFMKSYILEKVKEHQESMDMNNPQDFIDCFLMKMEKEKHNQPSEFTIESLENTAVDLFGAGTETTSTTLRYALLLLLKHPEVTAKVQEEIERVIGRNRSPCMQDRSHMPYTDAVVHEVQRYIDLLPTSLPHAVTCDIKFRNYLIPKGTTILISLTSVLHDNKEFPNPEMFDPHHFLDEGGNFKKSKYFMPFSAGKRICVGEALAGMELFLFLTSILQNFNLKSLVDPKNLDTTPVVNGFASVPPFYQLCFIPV
# [12] = Cytotoxicity in cultured human hepatocytes; type: cell-based; conditions: human, cryopreserved plated human hepatocytes
# human hepatocytes = test: Cytotoxicity in cultured human hepatocytes; type: cell-based; conditions: MMF ≤250 μmol/L; 72‐hour incubation
# CYP1A2 mRNA = CYP1A2 mRNA induction in cultured human hepatocytes; type: cell-based
smiles,measurement,setting,value
"COC(=O)/C=C/C(=O)OC [DMF, dimethylfumarate]",metabolic stability under the incubation conditions,[1],unlikely to be stable
same,number of patients with PASI 75 at Week 16,[2],superiority over placebo and noninferiority versus the FAE combination
same,pIC50,P‐gp [3],3.05
same,pIC50,P‐gp [4],2.82
same,hydrolysis half‐life of DMF in the intestine,[5],less than 2 minutes
same,"Inhibition of formation of 1′‐hydroxymidazolam, Mean","CYP3A4/5; DMF 666 μmol/L, 30 min PI + cofactor, midazolam, HLM",8.93%
same,IC50 at 10 min,CYP3A4/5,> 666 µM
same,"inhibition at 10 min, 666 μmol/L","CYP3A4/5; DMF 666 μmol/L, 0 min PI, HLM",0%
same,"inhibition at 10 min, 666 μmol/L","CYP3A4/5; DMF 666 μmol/L, 30 min PI + cofactor, HLM",35.5%
same,"inhibition at 10 min, 666 μmol/L","CYP3A4/5; DMF 666 μmol/L, 30 min PI – cofactor, HLM",0%
"COC(=O)/C=C/C(=O)O [MMF, monomethylfumarate]",net efflux ratio,P‐gp [6],< 2
same,fold increase in CYP2B6 mRNA,"CYP2B6 mRNA; 250 μmol/L MMF, donor 4",17.6 fold
same,"CYP2B6 mRNA induction, overall","CYP2B6 mRNA; MMF 1‐250 µmol/L, three donors",No concentration‐dependent induction effects
same,metabolic stability under the incubation conditions,[1],stable
same,% Control relative to 0 mmol/L MMF,P‐gp [3]; MMF 0.246 mmol/L,>69.4%
same,% Control relative to 0 mmol/L MMF,P‐gp [3]; MMF 0.738 mmol/L,>88.2%
same,% Control relative to 0 mmol/L MMF,P‐gp [3]; MMF 7.38 mmol/L,>138%
same,Cmax,[7],11.2 µM
same,fold increase in CYP3A4 mRNA,"CYP3A4 mRNA; 1 µmol/L MMF, donor 2 (XKU), not concentration dependent",> 2 fold
same,"CYP3A4 mRNA induction, overall",CYP3A4 mRNA; MMF at concentrations up to 250 μmol/L,no concentration‐dependent increases above 2‐fold
same,pIC50,CYP1A2,< 3.12
same,pIC50,CYP2D6,< 3.12
same,Papp A→B at 120 min,[8],< 2 ×10⁻⁶ cm/s
same,pIC50,CYP2B6,< 3.12
same,pIC50,CYP2C8,< 3.12
same,decrease of [^3H]digoxin efflux ratio,"P‐gp [4]; 7.38 mmol/L MMF, Caco‐2",approximately 85%
same,fold increase of Papp for [^3H]digoxin in the A–B direction,"P‐gp [4]; 7.38 mmol/L MMF, Caco‐2, possibly cytotoxicity",approximately 9 fold
same,% Control relative to 0 mmol/L MMF,P‐gp [4]; MMF 0.0738 mmol/L,76.9%
same,% Control relative to 0 mmol/L MMF,P‐gp [4]; MMF 0.246 mmol/L,76.7%
same,% Control relative to 0 mmol/L MMF,P‐gp [4]; MMF 0.738 mmol/L,99.8%
same,% Control relative to 0 mmol/L MMF,P‐gp [4]; MMF 7.38 mmol/L,14.5%
same,Post‐centrifugation recoveries,[9],≥ 86.5%
same,MMF still present in medium,[10],over 65%
same,IC50 at 10 min,CYP3A4/5,> 750 µM
same,mean recovery upon centrifugation,[11],> 92.2%
same,pIC50,CYP2C19,< 3.12
same,pIC50,CYP2C9,< 3.12
same,"viability at 72 h, 750 μmol/L",[12],71.6%
same,cytotoxic effects on human hepatocytes,human hepatocytes,No significant cytotoxic effects
same,fold increase in CYP1A2 mRNA,"CYP1A2 mRNA; 250 μmol/L MMF, donor 4",4.78 fold
same,"CYP1A2 mRNA induction, overall","CYP1A2 mRNA; MMF 1‐250 µmol/L, three donors",No concentration‐dependent induction effects
